This note sets out measurements from ChEMBL document CHEMBL3774335, “Tactical Approaches to Interconverting GPCR Agonists and Antagonists” (J Med Chem, 2016).

Each structure is given as a SMILES string.

Usually Kd stands for the free concentration of one partner at which half of the binding sites on the other are occupied at equilibrium, for simple one-to-one binding. Low values mean tighter binding, high ones weaker binding. One may read the IC50 as the midpoint of a concentration-inhibition curve. Higher therefore signals weaker potency. Usually Ki stands for the equilibrium dissociation constant of an inhibitor or competing ligand from its target.

A short description of experiment [1]: Displacement of 125I-[Sar1, Ile8] AngII from rat AT1 receptor expressed in COS1 cells. In kind it is cell-based. Conditions: cos-1. A general note: In a radioligand displacement assay an active substance lowers the binding of a labelled ligand.
The target of experiment [2] is Histamine H3 receptor (Homo sapiens) (UniProt Q9Y5N1). Briefly: Partial agonist activity at human histamine H3 receptor expressed in SK-N-MC cells by beta-galactosidase reporter gene assay relative to histamine. In kind it is cell-based. In general terms: Reporter assays use an easily measured gene product as a stand-in for the process of interest.
Histamine H3 receptor (Homo sapiens), sequence (Q9Y5N1 whole entry): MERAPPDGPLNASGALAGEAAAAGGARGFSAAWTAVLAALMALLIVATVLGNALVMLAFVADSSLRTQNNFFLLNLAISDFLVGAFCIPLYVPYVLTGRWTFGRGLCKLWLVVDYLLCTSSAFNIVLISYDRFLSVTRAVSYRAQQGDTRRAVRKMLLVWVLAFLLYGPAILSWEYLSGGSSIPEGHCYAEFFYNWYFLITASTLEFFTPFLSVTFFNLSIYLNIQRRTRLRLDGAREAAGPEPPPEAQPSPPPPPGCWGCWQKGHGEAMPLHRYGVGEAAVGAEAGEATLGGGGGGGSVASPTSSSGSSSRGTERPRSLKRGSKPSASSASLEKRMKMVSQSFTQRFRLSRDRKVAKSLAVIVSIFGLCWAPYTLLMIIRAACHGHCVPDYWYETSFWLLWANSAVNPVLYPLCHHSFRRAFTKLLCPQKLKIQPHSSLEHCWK
The target of the next experiment is Vasopressin V2 receptor (Homo sapiens, UniProt P30518). In words: Displacement of [3H]AVP from human Vasopressin V2 receptor expressed in HeLa cells after 2 hrs by liquid scintillation counter. The format is cell-based.
Vasopressin V2 receptor, sequence (P30518 whole entry): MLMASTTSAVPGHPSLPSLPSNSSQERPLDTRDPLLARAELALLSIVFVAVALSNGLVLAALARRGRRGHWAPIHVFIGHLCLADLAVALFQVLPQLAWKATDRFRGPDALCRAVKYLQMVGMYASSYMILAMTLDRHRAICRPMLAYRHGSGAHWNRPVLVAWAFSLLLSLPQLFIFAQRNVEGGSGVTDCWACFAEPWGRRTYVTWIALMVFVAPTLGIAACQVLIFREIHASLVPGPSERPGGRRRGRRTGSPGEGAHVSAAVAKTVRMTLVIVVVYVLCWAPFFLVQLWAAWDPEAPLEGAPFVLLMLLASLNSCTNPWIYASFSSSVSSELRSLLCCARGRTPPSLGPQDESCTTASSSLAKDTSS
Another experiment addresses Melanocortin receptor 4 (Homo sapiens, UniProt P32245). In words: Displacement of 125I-NDP-a-MSH from human Melanocortin receptor 4 after 2 hrs by TopCount microplate scintillation and luminescence counter.
Another experiment addresses T1, B2 bradykinin receptor (Homo sapiens, UniProt P30411).
T1 sequence (P30411 whole entry): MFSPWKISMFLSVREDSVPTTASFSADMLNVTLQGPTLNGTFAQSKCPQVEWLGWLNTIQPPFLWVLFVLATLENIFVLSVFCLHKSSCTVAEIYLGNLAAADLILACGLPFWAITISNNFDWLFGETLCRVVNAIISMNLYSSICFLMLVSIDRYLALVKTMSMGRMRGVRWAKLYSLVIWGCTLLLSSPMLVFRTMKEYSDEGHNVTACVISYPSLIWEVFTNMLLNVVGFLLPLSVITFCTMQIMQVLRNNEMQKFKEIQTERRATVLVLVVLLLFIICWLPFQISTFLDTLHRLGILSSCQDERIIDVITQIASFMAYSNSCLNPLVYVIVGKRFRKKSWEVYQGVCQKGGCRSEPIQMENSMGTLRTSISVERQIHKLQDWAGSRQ
Briefly: Displacement of [3H]BK from cloned human B2 bradykinin receptor expressed in CHO cells after 2 hrs by liquid scintillation counter. The format is cell-based.

Experiment [3] concerns the target T2, Type-2 angiotensin II receptor (Homo sapiens, UniProt P50052).
T2 sequence (P50052 whole entry): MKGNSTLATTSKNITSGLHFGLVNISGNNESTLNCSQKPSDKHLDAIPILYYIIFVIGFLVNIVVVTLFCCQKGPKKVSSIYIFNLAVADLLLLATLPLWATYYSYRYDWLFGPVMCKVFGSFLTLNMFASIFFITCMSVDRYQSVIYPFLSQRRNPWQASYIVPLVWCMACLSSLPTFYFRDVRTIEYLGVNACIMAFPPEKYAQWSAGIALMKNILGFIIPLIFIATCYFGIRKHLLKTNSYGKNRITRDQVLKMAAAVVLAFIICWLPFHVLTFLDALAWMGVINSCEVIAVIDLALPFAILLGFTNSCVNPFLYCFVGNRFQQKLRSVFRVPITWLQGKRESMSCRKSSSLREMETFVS
In words: Binding affinity to angiotensin II receptor (unknown origin).

Experiment [4] deals with Histamine H3 receptor (Homo sapiens) (UniProt Q9Y5N1). Briefly: Inverse agonist activity at human histamine H3 receptor expressed in SK-N-MC cells by beta-galactosidase reporter gene assay relative to histamine. In kind it is cell-based.

Melanocortin receptor 4, sequence (P32245 whole entry): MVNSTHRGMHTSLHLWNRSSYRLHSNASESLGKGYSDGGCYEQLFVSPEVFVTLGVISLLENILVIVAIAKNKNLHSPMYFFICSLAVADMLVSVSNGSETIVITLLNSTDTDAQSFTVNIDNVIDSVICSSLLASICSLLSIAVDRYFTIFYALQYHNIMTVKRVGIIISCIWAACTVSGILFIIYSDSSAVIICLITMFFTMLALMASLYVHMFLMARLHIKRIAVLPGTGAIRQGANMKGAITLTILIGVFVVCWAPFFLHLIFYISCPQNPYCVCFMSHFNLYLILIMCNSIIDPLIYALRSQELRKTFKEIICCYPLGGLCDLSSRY

On to `CCCc1nc(C(C)(C)O)c(C(N)=O)n1Cc1ccc(-c2cc(Cc3ccc(O)cc3)ccc2-c2nnn[nH]2)cc1`, for which the Kd in experiment [1] was found to be 48 nM.

`CCCc1nc(C(C)(C)O)c(C(N)=O)n1Cc1ccc(-c2ccccc2-c2nnn[nH]2)cc1`: the affinity in experiment [1], expressed as Kd, was 0.8 nM.

On to `c1nc(CCC2CCNCC2)c[nH]1`, for which the Intrinsic activity in experiment [2] worked out at 60%.

Turning to `Cc1cc(N)ccc1C(=O)N1CCCCc2cc(Cl)ccc21`, at Vasopressin V2 receptor, the IC50 turned out to be 18 nM.

Consider `CCN(C(C)=O)C(C)c1ccccc1N1CCN(C(=O)[C@H](CC(=O)NC2CCC2)Cc2ccc(Cl)cc2)CC1` (stereo partly drawn), for which the Ki at Melanocortin receptor 4 amounted to 6 nM.

As for `CCCc1nc(C(C)(C)O)c(C(=O)O)n1Cc1ccc(-c2ccccc2-c2nnn[nH]2)cc1` [OLMESARTAN], the Kd in experiment [1] worked out at 2.3 nM.

Consider `CCCc1nc(C(C)(C)O)c(C(=O)O)n1Cc1ccc(-c2cc(Cc3ccc(O)cc3)ccc2-c2nnn[nH]2)cc1`, for which the affinity in experiment [1], expressed as Kd, was 21 nM.

For `Cc1cc(OCc2ccccn2)c2cccc(OCc3c(Cl)ccc(N(C)C(=O)CNC(=O)/C=C/c4ccc(/C=C/c5ccncc5)nc4)c3Cl)c2n1`, the IC50 on B2 bradykinin receptor came out at 0.36 nM.

As to `CCCCOC(=O)NS(=O)(=O)c1ccc(CCC)cc1-c1ccc(Cn2c(CC)nc3c(C)cc(C)nc32)cc1`, the affinity in experiment [3] corresponds to a Ki of 1.5 nM.

In experiment [3], `CCCCOC(=O)NS(=O)(=O)c1ccc(CC(C)C)cc1-c1ccc(Cn2c(CC)nc3c(C)cc(C)nc32)cc1` registered a Ki of 2.1 nM.

`CCN(C(C)=O)C(C)c1ccccc1N1CCN(C(=O)[C@H](CC(=O)N2CCN(C(=O)OC(C)(C)C)CC2)Cc2ccc(Cl)cc2)CC1` (stereo partly drawn): the inhibitory constant (Ki) on Melanocortin receptor 4 is 2 nM.

Consider `c1nc(CCC2CCCNC2)c[nH]1` (stereo not drawn), for which the Intrinsic activity in experiment [2] was found to be 34%.

Molecule `c1nc(CCCC2CCCNC2)c[nH]1` (stereo not drawn) had an Intrinsic activity in experiment [4] of 29%.
